By AC50 is commonly meant the midpoint of the concentration-response curve, whichever way the signal moves. Read a high AC50 as activity only at high concentration.

In test [1] the target is 3',5'-cyclic-AMP phosphodiesterase 4A (Homo sapiens, UniProt P27815). The class given is functional.
The target of test [2] is T1, Amine oxidase [flavin-containing] A (Homo sapiens, UniProt P21397).
T1 sequence (P21397 whole entry): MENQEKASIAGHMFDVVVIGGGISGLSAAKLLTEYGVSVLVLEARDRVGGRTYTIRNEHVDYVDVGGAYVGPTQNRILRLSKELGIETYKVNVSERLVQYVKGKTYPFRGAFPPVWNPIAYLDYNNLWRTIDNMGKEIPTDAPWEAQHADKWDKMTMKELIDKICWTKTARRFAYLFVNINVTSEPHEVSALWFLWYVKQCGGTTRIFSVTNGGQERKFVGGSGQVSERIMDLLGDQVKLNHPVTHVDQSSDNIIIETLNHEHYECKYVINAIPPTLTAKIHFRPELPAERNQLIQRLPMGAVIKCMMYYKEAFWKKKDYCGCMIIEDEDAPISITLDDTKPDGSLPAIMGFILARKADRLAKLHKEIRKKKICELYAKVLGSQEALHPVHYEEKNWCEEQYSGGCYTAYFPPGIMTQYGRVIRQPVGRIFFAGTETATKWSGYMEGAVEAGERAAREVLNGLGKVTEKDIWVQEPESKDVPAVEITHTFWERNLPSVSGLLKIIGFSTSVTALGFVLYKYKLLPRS
The format is functional.

In test [3] the target is Sodium-dependent noradrenaline transporter (Homo sapiens, UniProt P23975).
Chain of Sodium-dependent noradrenaline transporter (P23975 whole entry): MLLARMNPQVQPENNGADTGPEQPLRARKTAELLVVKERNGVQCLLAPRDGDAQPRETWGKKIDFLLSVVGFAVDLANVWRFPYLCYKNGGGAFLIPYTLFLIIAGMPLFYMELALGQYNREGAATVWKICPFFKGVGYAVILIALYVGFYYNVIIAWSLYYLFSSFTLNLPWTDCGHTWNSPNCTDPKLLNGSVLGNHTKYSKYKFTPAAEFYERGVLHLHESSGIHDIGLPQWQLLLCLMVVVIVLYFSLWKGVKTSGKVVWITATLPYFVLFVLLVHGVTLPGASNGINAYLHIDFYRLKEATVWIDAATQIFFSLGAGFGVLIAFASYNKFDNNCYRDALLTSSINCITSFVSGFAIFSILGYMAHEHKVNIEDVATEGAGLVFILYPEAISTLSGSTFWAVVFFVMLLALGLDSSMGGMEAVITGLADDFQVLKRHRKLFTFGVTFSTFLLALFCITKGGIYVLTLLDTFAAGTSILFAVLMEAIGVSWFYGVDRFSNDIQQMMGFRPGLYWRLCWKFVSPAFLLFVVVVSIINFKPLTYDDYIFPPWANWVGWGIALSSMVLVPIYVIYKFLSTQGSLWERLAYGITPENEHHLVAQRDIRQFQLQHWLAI
Another test addresses T2, Estrogen receptor (Homo sapiens, UniProt P03372).
T2 sequence (P03372 whole entry): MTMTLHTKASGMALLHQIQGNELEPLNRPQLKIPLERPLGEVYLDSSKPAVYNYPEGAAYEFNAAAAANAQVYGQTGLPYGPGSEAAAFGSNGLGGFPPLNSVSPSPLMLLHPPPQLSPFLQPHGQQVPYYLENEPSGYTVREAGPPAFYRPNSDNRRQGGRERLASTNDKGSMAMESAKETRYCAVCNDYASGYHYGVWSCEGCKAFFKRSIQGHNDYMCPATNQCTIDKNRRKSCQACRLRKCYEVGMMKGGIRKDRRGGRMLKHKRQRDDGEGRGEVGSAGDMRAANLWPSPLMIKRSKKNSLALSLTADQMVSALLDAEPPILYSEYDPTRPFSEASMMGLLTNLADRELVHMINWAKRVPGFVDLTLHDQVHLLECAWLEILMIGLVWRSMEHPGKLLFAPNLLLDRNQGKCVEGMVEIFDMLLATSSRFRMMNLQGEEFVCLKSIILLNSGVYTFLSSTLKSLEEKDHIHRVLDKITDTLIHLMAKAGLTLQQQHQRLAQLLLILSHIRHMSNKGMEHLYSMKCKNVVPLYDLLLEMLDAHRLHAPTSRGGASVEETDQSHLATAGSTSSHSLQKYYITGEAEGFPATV

The target in test [4] is T3, Alpha-1A adrenergic receptor (Homo sapiens, UniProt P35348).
T3 sequence (P35348 whole entry): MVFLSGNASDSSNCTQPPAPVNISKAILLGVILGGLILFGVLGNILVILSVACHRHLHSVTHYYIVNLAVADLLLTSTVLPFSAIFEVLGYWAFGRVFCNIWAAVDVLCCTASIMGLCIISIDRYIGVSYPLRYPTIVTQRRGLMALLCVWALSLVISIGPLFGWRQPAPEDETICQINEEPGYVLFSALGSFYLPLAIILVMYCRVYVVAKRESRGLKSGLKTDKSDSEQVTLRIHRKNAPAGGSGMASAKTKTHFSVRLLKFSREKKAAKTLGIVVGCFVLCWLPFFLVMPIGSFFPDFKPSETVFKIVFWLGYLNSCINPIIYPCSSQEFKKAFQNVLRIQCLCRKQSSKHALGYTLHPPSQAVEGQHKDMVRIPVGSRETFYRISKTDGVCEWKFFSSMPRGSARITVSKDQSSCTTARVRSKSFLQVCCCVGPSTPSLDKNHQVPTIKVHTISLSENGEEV
The format is functional, cell-based.

The target of a further test is T4, Progesterone receptor (Homo sapiens, UniProt P06401).
T4 sequence (P06401 whole entry): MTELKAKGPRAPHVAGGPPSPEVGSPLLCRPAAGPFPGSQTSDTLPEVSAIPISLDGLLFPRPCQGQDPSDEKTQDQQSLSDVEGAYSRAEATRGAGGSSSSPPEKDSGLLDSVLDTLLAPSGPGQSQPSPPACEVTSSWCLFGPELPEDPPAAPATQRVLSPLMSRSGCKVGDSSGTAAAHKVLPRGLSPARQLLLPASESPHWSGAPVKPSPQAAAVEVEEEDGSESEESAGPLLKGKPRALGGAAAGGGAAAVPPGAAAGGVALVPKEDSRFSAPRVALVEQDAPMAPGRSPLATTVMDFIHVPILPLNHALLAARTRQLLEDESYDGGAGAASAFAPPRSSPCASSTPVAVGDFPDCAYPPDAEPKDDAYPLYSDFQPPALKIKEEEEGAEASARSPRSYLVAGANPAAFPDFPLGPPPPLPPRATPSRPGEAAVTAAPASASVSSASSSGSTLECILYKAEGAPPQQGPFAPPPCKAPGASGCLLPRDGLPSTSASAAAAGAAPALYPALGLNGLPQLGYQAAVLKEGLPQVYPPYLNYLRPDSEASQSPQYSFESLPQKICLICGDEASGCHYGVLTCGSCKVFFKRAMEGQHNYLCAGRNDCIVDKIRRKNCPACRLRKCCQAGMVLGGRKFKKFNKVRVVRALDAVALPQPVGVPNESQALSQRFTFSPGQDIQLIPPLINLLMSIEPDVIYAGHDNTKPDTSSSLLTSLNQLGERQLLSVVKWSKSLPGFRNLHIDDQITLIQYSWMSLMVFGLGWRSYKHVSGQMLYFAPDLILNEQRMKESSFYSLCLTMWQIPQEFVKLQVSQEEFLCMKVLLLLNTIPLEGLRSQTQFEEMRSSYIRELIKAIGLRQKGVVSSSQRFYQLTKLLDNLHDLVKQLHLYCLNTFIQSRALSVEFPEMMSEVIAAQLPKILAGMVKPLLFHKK

The target of test [5] is Prostaglandin G/H synthase 1 (Homo sapiens, UniProt P23219). The format is functional.
Chain of Prostaglandin G/H synthase 1 (P23219 whole entry): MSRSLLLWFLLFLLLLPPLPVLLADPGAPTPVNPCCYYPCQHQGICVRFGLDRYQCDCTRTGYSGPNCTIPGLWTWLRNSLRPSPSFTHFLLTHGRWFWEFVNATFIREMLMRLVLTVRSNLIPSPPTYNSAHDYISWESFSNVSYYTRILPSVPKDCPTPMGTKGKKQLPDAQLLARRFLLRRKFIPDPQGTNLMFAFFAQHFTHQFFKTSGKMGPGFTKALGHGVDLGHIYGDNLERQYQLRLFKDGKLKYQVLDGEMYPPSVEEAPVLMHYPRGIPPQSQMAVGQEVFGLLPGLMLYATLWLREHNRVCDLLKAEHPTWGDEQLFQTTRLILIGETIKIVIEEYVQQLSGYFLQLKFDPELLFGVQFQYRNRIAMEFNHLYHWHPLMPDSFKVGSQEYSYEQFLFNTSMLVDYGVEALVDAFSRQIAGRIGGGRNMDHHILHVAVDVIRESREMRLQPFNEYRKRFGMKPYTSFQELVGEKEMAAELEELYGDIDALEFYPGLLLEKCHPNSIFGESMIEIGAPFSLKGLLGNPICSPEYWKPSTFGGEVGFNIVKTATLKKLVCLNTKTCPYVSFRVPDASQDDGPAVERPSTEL
Also: assay procedure not described here.

Chain of 3',5'-cyclic-AMP phosphodiesterase 4A (P27815 whole entry): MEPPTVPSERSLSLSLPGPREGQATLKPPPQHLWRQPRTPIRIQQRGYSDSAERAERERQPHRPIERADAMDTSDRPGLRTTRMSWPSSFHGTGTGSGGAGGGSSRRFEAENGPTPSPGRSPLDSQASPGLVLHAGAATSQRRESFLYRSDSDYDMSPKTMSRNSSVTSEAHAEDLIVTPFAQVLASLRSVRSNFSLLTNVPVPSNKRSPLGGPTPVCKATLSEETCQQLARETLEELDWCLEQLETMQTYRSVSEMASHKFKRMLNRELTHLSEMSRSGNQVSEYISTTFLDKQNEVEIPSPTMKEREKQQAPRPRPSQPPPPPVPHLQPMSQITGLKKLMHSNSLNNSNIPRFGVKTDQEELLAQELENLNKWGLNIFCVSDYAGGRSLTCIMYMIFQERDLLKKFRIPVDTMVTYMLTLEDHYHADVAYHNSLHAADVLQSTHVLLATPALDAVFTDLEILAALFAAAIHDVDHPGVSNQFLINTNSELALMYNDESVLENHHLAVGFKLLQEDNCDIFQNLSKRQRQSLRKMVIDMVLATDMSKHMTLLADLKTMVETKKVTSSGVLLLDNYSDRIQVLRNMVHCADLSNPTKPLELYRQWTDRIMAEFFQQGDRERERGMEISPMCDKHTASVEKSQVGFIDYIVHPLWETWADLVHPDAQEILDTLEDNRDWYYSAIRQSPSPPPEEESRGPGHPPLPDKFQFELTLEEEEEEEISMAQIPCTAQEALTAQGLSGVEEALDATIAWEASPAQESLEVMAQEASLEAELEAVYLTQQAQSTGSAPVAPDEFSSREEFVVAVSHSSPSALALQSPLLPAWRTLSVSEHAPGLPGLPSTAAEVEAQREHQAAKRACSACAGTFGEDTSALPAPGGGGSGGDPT

As to `C[C@]1(COc2ccc(N3CCC(Oc4ccc(OC(F)(F)F)cc4)CC3)cc2)Cn2cc([N+](=O)[O-])nc2O1`, the AC50 is greater than 30 µM in test [1]; greater than 30 µM in test [2]; 12.9 µM in test [3]; greater than 30 µM on Estrogen receptor; greater than 30 µM in test [4]; greater than 30 µM on Progesterone receptor. Besides, the AC50 in test [5] was greater than 30 µM.

Consider `CC(=O)OC(C)OC(=O)C(C)c1ccc(-c2ccccc2)c(F)c1` (stereo unspecified), for which the AC50 is 20.2 µM in test [1]; greater than 30 µM in test [2]; greater than 30 µM in test [3]; greater than 30 µM at Estrogen receptor; greater than 30 µM in test [4]; 25.4 µM at Progesterone receptor. Further, in test [5], half-maximal activity (AC50) was put at 0.0212 µM.

Consider `CNC(=O)C[C@@H](N)C(=O)N[C@@H](C(=O)N[C@@H]1C(=O)N2[C@@H]1SC(C)(C)[C@@H]2C(=O)O)c1ccc(O)cc1` [ASPOXICILLIN], for which the AC50 (in test [1]; in test [2]; in test [3]; at Estrogen receptor; in test [4]; at Progesterone receptor) was greater than 30 µM throughout. The molecule also registered an AC50 in test [5] greater than 30 µM.

As for `COC(=O)C1=C(C)NC(C)=C(C(=O)O[C@H]2CCN(Cc3ccccc3)C2)[C@H]1c1cccc([N+](=O)[O-])c1` [BARNIDIPINE], the concentration at half-maximal activity (AC50) in test [1] was greater than 30 µM; in test [2], greater than 30 µM; in test [3] it was 0.635 µM; on Estrogen receptor it was greater than 30 µM; in test [4], 1.31 µM; on Progesterone receptor it was 5.55 µM. For the same molecule, the AC50 in test [5] was greater than 30 µM.

For `Cc1nnc(SCC2=C(C(=O)O)N3C(=O)[C@@H](NC(=O)Cn4cc(Cl)c(=O)c(Cl)c4)[C@H]3SC2)s1` [CEFAZEDONE], the AC50 in test [1] is 28.1 µM; in test [2] it was greater than 30 µM; in test [3], greater than 30 µM; on Estrogen receptor, greater than 30 µM; in test [4], greater than 30 µM; on Progesterone receptor it was greater than 30 µM. The AC50 in test [5] was found to be 24.8 µM.

As for `CO/N=C(\C(=O)N[C@@H]1C(=O)N2C(C(=O)[O-])=C(C[n+]3cccc4c3CCC4)CS[C@H]12)c1csc(N)n1` [CEFPIROME], the AC50 (in test [1]; in test [2]; in test [3]; at Estrogen receptor; in test [4]; on Progesterone receptor) was greater than 30 µM in each case. The molecule further showed a concentration at half-maximal activity (AC50) in test [5] greater than 30 µM.

Regarding `Nc1ncnc(Nc2ccc(Cl)cc2)n1` [CHLORAZANIL], the AC50 is 19.7 µM in test [1]; greater than 30 µM in test [2]; 5.4 µM in test [3]; greater than 30 µM on Estrogen receptor; greater than 30 µM in test [4]; greater than 30 µM at Progesterone receptor. In test [5], this molecule gave an AC50 greater than 30 µM.

On to `O=C(O)CC(O)(CC(=O)O)C(=O)O` [CITRIC ACID], for which the AC50 (in test [1]; in test [2]; in test [3]; on Estrogen receptor; in test [4]; on Progesterone receptor) was greater than 30 µM throughout. The molecule also had an AC50 in test [5] greater than 30 µM.

`CC[C@H]1OC(=O)[C@H](C)[C@@H](O[C@H]2C[C@@](C)(OC)[C@@H](O)[C@H](C)O2)[C@H](C)[C@@H](O[C@@H]2O[C@H](C)C[C@H](N(C)C)[C@H]2O)[C@](C)(OC)C[C@@H](C)C(=O)[C@H](C)[C@@H](O)[C@]1(C)O` [CLARITHROMYCIN]: the AC50 (in test [1]; in test [2]; in test [3]; at Estrogen receptor; in test [4]; on Progesterone receptor) was greater than 30 µM in each case. In test [5], this molecule registered an AC50 greater than 30 µM.

As for `CCC[C@@H]1C[C@@H](C(=O)N[C@@H]([C@H]2O[C@H](SC)[C@H](OP(=O)(O)O)[C@@H](O)[C@H]2O)[C@H](C)Cl)N(C)C1` [CLINDAMYCIN PHOSPHATE], the AC50 (in test [1]; in test [2]; in test [3]; at Estrogen receptor; in test [4]; at Progesterone receptor) was greater than 30 µM each time. Also, the concentration at half-maximal activity (AC50) in test [5] was greater than 30 µM.

`C[C@@H]1C[C@H]2[C@@H]3C[C@H](F)C4=CC(=O)C=C[C@]4(C)[C@@]3(Cl)[C@@H](O)C[C@]2(C)[C@H]1C(=O)COC(=O)C(C)(C)C` [CLOCORTOLONE PIVALATE]: the AC50 is greater than 30 µM in test [1]; greater than 30 µM in test [2]; greater than 30 µM in test [3]; greater than 30 µM at Estrogen receptor; greater than 30 µM in test [4]; 0.0118 µM at Progesterone receptor. Also, in test [5], the concentration at half-maximal activity (AC50) was greater than 30 µM.

As for `c1ccc2c(CC3=NCCN3)cccc2c1` [NAPHAZOLINE], the AC50 (in test [1]; in test [2]; in test [3]; on Estrogen receptor; on Progesterone receptor; in test [5]) was greater than 30 µM each time.

As to `CO[C@H]1/C=C/O[C@@]2(C)Oc3c(C)c(O)c4c(O)c(cc(O)c4c3C2=O)NC(=O)/C(C)=C\C=C\[C@H](C)[C@H](O)[C@@H](C)[C@@H](O)[C@@H](C)[C@H](OC(C)=O)[C@@H]1C` [RIFAMYCIN], the AC50 in test [1] is greater than 30 µM; in test [2], greater than 30 µM; in test [3], greater than 30 µM; at Estrogen receptor, greater than 30 µM; at Progesterone receptor, greater than 30 µM; in test [5] it was 28.7 µM.

`CCOC(=O)[C@H](CCc1ccccc1)N[C@H]1CS[C@H](c2cccs2)CN(CC(=O)O)C1=O` [TEMOCAPRIL]: the AC50 was greater than 10 µM in test [1]; greater than 30 µM in test [2]; greater than 30 µM in test [3]; greater than 30 µM on Estrogen receptor; greater than 30 µM in test [4]; greater than 30 µM in test [5].

With `CCSc1ccc2c(c1)N(CCCN1CCN(C)CC1)c1ccccc1S2` [THIETHYLPERAZINE], the AC50 is greater than 30 µM in test [1]; greater than 30 µM in test [2]; 1.65 µM in test [3]; greater than 30 µM at Estrogen receptor; 24.4 µM on Progesterone receptor; 26.5 µM in test [5].

The values above are taken from ChEMBL document CHEMBL5291721, “A preclinical secondary pharmacology resource illuminates target-adverse drug reaction associations of marketed drugs” (Nat Commun, 2023).
